Experimental data published in article PMC3340383, “Synthesis and Evaluation of a Series of 2-Substituted-5-Thiopropylpiperazine (Piperidine)-1,3,4-Oxadiazoles Derivatives as Atypical Antipsychotics” (PLoS ONE, 2012).
Read-outs that look alike come from different tables or passages of the source.

Assays:
[1] = target: T1, dopamine D2 receptor (Rattus norvegicus, UniProt P61169); test: D2 dopaminergic binding assay ([3H]spiperone, rat striatum); details: read-out: Ki±SEM, D2
T1 construct: Rat striatum was homogenized in 20 volumes of ice-cold 50 mM Tris-HCl buffer; from tissue; host or cells: rat striatum
Experimental: (§1) All the new compounds were dissolved in 5% DMSO. The following specific radioligands and tissue sources were used: (a) serotonin 5-HT1A receptor, [^3H]8-OH-DPAT, rat brain cortex; (b) serotonin 5-HT2A receptor, [^3H]ketanserin, rat brain cortex; (c) serotonin 5-HT2C receptor, [^3H]mesulergine, rat brain cortex; (d) dopamine D2 receptor, [^3H]spiperone, rat striatum; (e) dopamine D3 receptor, [^3H]spiperone, rat olfactory tubercle (f) histamine H1 receptor, [^3H] pyrilamine, guinea pig cerebellum.
(§2) Total binding was determined in the absence of no-specific binding and compounds. Specific binding was determined in the presence of compounds. Non-specific binding was determined as the difference between total and specific binding.
(§3) Percentage of inhibition (%) = (total binding − specific binding)×100%/(total binding − nonspecific binding).
(§4) Ki values were calculated based on the Cheng and Prussoff equation: Ki = IC50/(1+C/Kd) where C represents the concentration of the hot ligand used and Kd its receptor dissociation constant were calculated for each labeled ligand. Mean Ki values and SEM were reported for at least three independent experiments.
Rat striatum was homogenized in 20 volumes of ice-cold 50 mM Tris-HCl buffer (pH 7.7) using an ULTRA TURAX homogeniser, and centrifuged twice for 10 min at 48,000 g with resuspension of the pellet in fresh buffer. The final pellet was resuspended in 50 mM ice-cold Tris-HCl containing 120 mM NaCl, 5 mM KCl, 2 mM CaCl2, 1 mM MgCl2, 0.1% ascorbic acid and 5 µM pargyline.
Total binding each assay tube was added 900 µL of the tissue suspension, 50 µL of 0.5 nM [^3H]spiperone (16.2 Ci/mmol; Perkin Elmer Life Sciences, Boston, MA, USA), 50 µL Tris-HCl buffer containing 120 mM NaCl, 5 mM KCl, 2 mM CaCl2, 1 mM MgCl2, 0.1% ascorbic acid and 5 µM pargyline.
Non-specific binding each assay tube was added 900 µL of the tissue suspension, 50 µL of 0.5 nM [^3H]spiperone, 50 µL of 10 µM (+)-butaclamol.
Specific binding each assay tube was added 900 µL of the tissue suspension, 50 µL of 0.5 nM [^3H]spiperone, 50 µL of new compounds or reference drug.
(§5) The incubation was followed by a rapid vacuum filtration through Whatman GF/B glass filters, and the filtrates were washed twice with 5 mL cold buffer and transferred to scintillation vials. Scintillation fluid (3.0 mL) was added and the radioactivity bound was measured using a Beckman LS 6500 liquid scintillation counter.

[2] = target: T2, serotonin 5-HT2A receptor (Rattus norvegicus, UniProt P14842); test: 5-HT2A binding assay ([3H]ketanserin, rat brain cortex); details: read-out: Ki±SEM, 5HT2A
T2 construct: Rat cerebral cortex was homogenized in 20 volumes of ice-cold Tris-HCl buffer; from tissue; host or cells: rat brain (cerebral) cortex
Experimental: as §1, §2, §3, §4
Rat cerebral cortex was homogenized in 20 volumes of ice-cold Tris-HCl buffer (50 mM, pH 7.7) using an ULTRA TURAX homogeniser, and centrifuged at 32000 g for 20 min. The resulting pellet was resuspended in the same quantity of the buffer centrifuged for 20 min. The final pellet was resuspended in 50 volumes of the Tris-HCl buffer.
Total binding each assay tube was added 900 µL of the tissue suspension, 50 µL of 0.6 nM [^3H]ketanserin (60.0 Ci/mmol, Perkin Elmer Life Sciences, Boston, MA, USA), 50 µL Tris-HCl buffer.
Non-specific binding each assay tube was added 900 µL of the tissue suspension, 50 µL of 0.6 nM [^3H]ketanserin, 50 µL of 10 µM methisergide.
Specific binding each assay tube was added 900 µL of the tissue suspension, 50 µL of 0.6 nM [^3H]ketanserin, […] of new compounds or reference drug.
as §5

[3] = target: T3, serotonin 5-HT1A receptor (Rattus norvegicus, UniProt P19327); test: 5-HT1A binding assay ([3H]8-OH-DPAT, rat brain cortex); details: read-out: Ki±SEM, 5HT1A
T3 construct: Rat cerebral cortex was homogenized in 20 volumes of ice-cold Tris-HCl buffer; from tissue; host or cells: rat brain (cerebral) cortex
T3 sequence (P19327 1-422): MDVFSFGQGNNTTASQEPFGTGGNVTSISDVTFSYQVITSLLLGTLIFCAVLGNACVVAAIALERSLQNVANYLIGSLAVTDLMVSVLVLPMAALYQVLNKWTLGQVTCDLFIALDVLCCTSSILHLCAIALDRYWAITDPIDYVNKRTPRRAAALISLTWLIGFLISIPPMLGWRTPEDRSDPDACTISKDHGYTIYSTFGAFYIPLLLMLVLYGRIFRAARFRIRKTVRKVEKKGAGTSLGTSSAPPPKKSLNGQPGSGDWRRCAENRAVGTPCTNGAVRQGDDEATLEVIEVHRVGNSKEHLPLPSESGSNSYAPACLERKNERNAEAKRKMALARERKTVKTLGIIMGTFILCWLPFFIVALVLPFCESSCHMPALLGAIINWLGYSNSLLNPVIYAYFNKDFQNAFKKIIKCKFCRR
Experimental: as §1, §2, §3, §4
Rat cerebral cortex was homogenized in 20 volumes of ice-cold Tris-HCl buffer (50 mM, pH 7.7) using an ULTRA TURAX homogeniser, and was then centrifuged at 32000 g for 10 min. […] The final pellet was resuspended in Tris-HCl buffer containing 10 µM Pargyline, 4 mM CaCl2 and 0.1% ascorbic acid.
Total binding each assay tube was added 900 µL of the tissue suspension, 50 µL of 0.5 nM [^3H]8-OH-DPAT (187.4 Ci/mmol, Perkin Elmer Life Sciences, Boston, MA, USA), 50 µL Tris-HCl buffer containing 10 µM Pargyline, 4 mM CaCl2 and 0.1% ascorbic acid.
Non-specific binding each assay tube was added 900 µL of the tissue suspension, 50 µL of 0.5 nM [^3H]8-OH-DPAT, 50 µL of 10 µM serotonin.
Specific binding each assay tube was added 900 µL of the tissue suspension, 50 µL of 0.5 nM [^3H]8-OH-DPAT, 50 µL of new compounds or reference drug.
as §5, with “5mL” for “5 mL”

[4] = [3H]spiperone, rat striatum, mean of three experiments, >10000 marked b: Ki not calculated, inhibition at 10 µM too low
[5] = [3H]ketanserin, rat brain cortex, mean of three experiments, >10000 marked b: Ki not calculated, inhibition at 10 µM too low
[6] = [3H]8-OH-DPAT, rat brain cortex, mean of three experiments, >10000 marked b: Ki not calculated, inhibition at 10 µM too low

T1 sequence (P61169 whole entry): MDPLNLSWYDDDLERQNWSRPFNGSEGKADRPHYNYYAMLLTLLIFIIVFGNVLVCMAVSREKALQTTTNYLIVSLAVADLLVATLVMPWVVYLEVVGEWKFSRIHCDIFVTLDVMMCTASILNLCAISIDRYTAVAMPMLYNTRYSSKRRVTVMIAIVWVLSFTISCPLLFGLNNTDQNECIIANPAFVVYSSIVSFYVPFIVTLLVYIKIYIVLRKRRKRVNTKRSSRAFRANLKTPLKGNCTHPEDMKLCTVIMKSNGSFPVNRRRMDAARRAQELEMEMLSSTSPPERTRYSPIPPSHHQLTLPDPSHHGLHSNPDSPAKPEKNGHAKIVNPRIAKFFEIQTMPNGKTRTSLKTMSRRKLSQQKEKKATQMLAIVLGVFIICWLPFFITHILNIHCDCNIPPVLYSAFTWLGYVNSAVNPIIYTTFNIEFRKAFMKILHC
T2 sequence (P14842 whole entry): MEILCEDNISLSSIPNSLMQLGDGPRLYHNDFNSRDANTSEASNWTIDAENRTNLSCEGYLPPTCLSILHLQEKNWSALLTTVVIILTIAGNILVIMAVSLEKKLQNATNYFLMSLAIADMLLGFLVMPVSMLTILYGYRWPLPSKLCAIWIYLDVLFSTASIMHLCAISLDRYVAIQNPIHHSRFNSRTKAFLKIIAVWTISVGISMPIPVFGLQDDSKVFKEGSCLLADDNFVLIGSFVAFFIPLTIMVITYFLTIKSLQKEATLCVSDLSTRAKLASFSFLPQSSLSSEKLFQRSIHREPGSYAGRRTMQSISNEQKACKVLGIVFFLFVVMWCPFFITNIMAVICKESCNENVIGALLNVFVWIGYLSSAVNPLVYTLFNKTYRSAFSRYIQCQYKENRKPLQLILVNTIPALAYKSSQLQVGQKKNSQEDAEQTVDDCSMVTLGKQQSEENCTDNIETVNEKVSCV

Ki [1, 4] [nM] | Ki [2, 5] [nM] | Ki [3, 6] [nM] | Structure (SMILES) | Ki [1] [nM] | Ki [2] [nM] | Ki [3] [nM] | melting point [°C]
 |  |  | Cc1cccc(N2CCN(CCCSc3nnc(-c4ccccc4)o3)CC2)c1C [Compound 7, 2-((3-(4-(2,3-dimethylphenyl)piperazin-1-yl)propyl)thio)-5-phenyl-1,3,4-oxadiazole] | > 10000 | 374 ± 33 | > 10000 | 86 to 88
 |  |  | COc1ccccc1N1CCN(CCCSc2nnc(-c3ccccc3)o2)CC1 [Compound 8, 2-((3-(4-(2-methoxyphenyl)piperazin-1-yl)propyl)thio)-5-phenyl-1,3,4-oxadiazole] | > 10000 | > 10000 | > 10000 | 
 |  |  | Clc1cccc(N2CCN(CCCSc3nnc(-c4ccccc4)o3)CC2)c1Cl [Compound 9, 2-((3-(4-(2,3-dichlorophenyl)piperazin-1-yl)propyl)thio)-5-phenyl-1,3,4-oxadiazole] | > 10000 | > 10000 | > 10000 | 82 to 84
 |  |  | FC(F)(F)c1cccc(N2CCN(CCCSc3nnc(-c4ccccc4)o3)CC2)c1 [Compound 10, 2-((3-(4-(3-(trifluoromethyl)phenyl)piperazin-1-yl)propyl)thio)-5-phenyl-1,3,4-oxadiazole] | > 10000 | > 10000 | > 10000 | 68 to 69
 |  |  | c1ccc(-c2nnc(SCCCN3CCN(c4nsc5ccccc45)CC3)o2)cc1 [Compound 11, 2-((3-(4-(benzo[d]isothiazol-3-yl)piperazin-1-yl)propyl)thio)-5-phenyl-1,3,4-oxadiazole] | 2570 ± 321 | 61.4 ± 5.8 | 19 ± 2.3 | 69 to 71
 |  |  | Fc1ccc2c(C3CCN(CCCSc4nnc(-c5ccccc5)o4)CC3)noc2c1 [Compound 12, 2-(3-(4-(6-fluorobenzo[d]isoxazol-3-yl)piperidin-1-yl)propylthio)-5-phenyl-1,3,4-oxadiazole] | 2970 ± 381 | 11.3 ± 1.2 | 18.9 ± 1.6 | 106 to 107
96.7 ± 9.5 | 17.2 ± 1.6 | > 10000 | COc1ccc(-c2nnc(SCCCN3CCN(c4nsc5ccccc45)CC3)o2)cc1 [Compound 13, 2-((3-(4-(benzo[d]isothiazol-3-yl)piperazin-1-yl)propyl)thio)-5-(4-methoxyphenyl)-1,3,4-oxadiazole] |  |  |  | 
126 ± 13.5 | 27.2 ± 2.8 | 14.2 ± 1.3 | Clc1ccc(-c2nnc(SCCCN3CCN(c4nsc5ccccc45)CC3)o2)cc1 [Compound 15, 2-((3-(4-(benzo[d]isothiazol-3-yl)piperazin-1-yl)propyl)thio)-5-(4-chlorophenyl)-1,3,4-oxadiazole] |  |  |  | 
487 ± 46.3 | 50.8 ± 5.3 | > 10000 | FC(F)(F)c1ccc(-c2nnc(SCCCN3CCN(c4nsc5ccccc45)CC3)o2)cc1 [Compound 17, 2-((3-(4-(benzo[d]isothiazol-3-yl)piperazin-1-yl)propyl)thio)-5-(4-(trifluoromethyl)phenyl)-1,3,4-oxadiazole] |  |  |  | 
 |  |  | Fc1ccc2c(C3CCN(CCCSc4nnc(-c5ccc(C(F)(F)F)cc5)o4)CC3)noc2c1 [Compound 18, 2-(3-(4-(6-fluorobenzo[d]isoxazol-3-yl)piperidin-1-yl)propylthio)-5-(4-(trifluoromethyl)phenyl)-1,3,4-oxadiazole] | 94.5 ± 8.9 | 24.7 ± 2.8 | 51 ± 4.9 | 122 to 124
> 10000 | > 10000 | > 10000 | Fc1ccc(-c2nnc(SCCCN3CCN(c4nsc5ccccc45)CC3)o2)cc1 [Compound 19, 2-(3-(4-(benzo[d]isothiazol-3-yl)piperazin-1-yl)propylthio)-5-(4-fluorophenyl)-1,3,4-oxadiazole] |  |  |  | 
125 ± 12.4 | 15.8 ± 1.3 | 14.8 ± 1.5 | Fc1ccc(-c2nnc(SCCCN3CCC(c4noc5cc(F)ccc45)CC3)o2)cc1 [Compound 20, 2-(3-(4-(6-fluorobenzo[d]isoxazol-3-yl)piperidin-1-yl)propylthio)-5-(4-fluorophenyl)-1,3,4-oxadiazole] |  |  |  | 
138 ± 13.6 | 114 ± 12.1 | 346 ± 35.9 | c1ccc2c(-c3nnc(SCCCN4CCN(c5nsc6ccccc56)CC4)o3)cccc2c1 [Compound 21, 2-(3-(4-(benzo[d]isothiazol-3-yl)piperazin-1-yl)propylthio)-5-(naphthalen-1-yl)-1,3,4-oxadiazole] |  |  |  | 
> 10000 | 54.1 ± 6.9 | 450 ± 49.8 | c1csc(-c2nnc(SCCCN3CCN(c4nsc5ccccc45)CC3)o2)c1 [Compound 23, 2-(3-(4-(benzo[d]isothiazol-3-yl)piperazin-1-yl)propylthio)-5-(thiophen-2-yl)-1,3,4-oxadiazole] |  |  |  | 
91 ± 11.2 | 50.3 ± 6.5 | 96.6 ± 10.3 | Fc1ccc2c(C3CCN(CCCSc4nnc(-c5cccs5)o4)CC3)noc2c1 [Compound 24, 2-(3-(4-(6-fluorobenzo[d]isoxazol-3-yl)piperidin-1-yl)propylthio)-5-(thiophen-2-yl)-1,3,4-oxadiazole] |  |  |  | 
 |  |  | c1ccc2c(N3CCN(CCCSc4nnc(-c5ccncc5)o4)CC3)nsc2c1 [Compound 25, 2-(3-(4-(benzo[d]isothiazol-3-yl)piperazin-1-yl)propylthio)-5-(pyridin-4-yl)-1,3,4-oxadiazole] | > 10000 | 390 ± 36.5 | > 10000 | 93 to 94
260 ± 32.1 | 59.2 ± 7.6 | 60.6 ± 8.6 | Fc1ccc2c(C3CCN(CCCSc4nnc(-c5ccncc5)o4)CC3)noc2c1 [Compound 26, 2-(3-(4-(6-fluorobenzo[d]isoxazol-3-yl)piperidin-1-yl)propylthio)-5-(pyridin-4-yl)-1,3,4-oxadiazole] |  |  |  | 
